Results on four substances are retold here after patent US10828370B2, “Selectin and ICAM/VCAM peptide ligand conjugates” (Purdue Research Foundation, priority 2014, dated 2020).

pIC50: −log10 of the molar value.

The subject of assay [1] is Selectin (E-Selectin and S-Selectin). The following applies: selectin-binding peptide, free sequence; literature reference; cited from earlier work.
For assay [2], the system named is TNF-α stimulated endothelial cells (ECs). As to the kind of experiment: Relative binding affinity of EC-SEAL conjugates to endothelial cells (Streptavidin-HRP absorbance). The following applies: 3 μM treatments. It is filed as cell-based.

Take QITWAQLWNMMK: in assay [1], the negative-log IC50 (pIC50) was about 6.80.
Take IELLQAR: in assay [1], the pIC50 was about 3.70.
For IDLMQAR, the negative-log IC50 (pIC50) in assay [1] is about 3.70.
Take “IEL/DGE-10,10 (peptide 1 IELLQARGC; peptide 2 DGEATDGC)”: in assay [2], the “relative binding to endothelial cells vs single receptor-binding conjugates (FIG. 4)” value is listed as “greater binding”.

What is called pIC50 is −log10 of the IC50, conventionally taken in molar units.
